Legend:
MARV = test: microbe, parasite or virus in culture; assay type: cell-based, Marburgvirus (Musoke strain); conditions: for IC50: read-out: IC-50 (MARV)
EBOV = test: organism not typed; assay type: cell-based, Zaire Ebolavirus (Mayinga strain); conditions: for IC50: read-out: IC-50 (EBOV)

SMILES | Curve class (MARV) (MARV) | IC50 (MARV) | Curve Class (EBOV) (EBOV) | IC50 (EBOV)
C=C1CC(C)OC(c2ccccc2OCC(O)CN2CCCCC2)C1 (stereo not drawn) [MLS000042810] | 1.2 | 25.5 µM | 1.7 | –
O=C(NC1CCCCC1)c1ccc(S(=O)(=O)N2CCCCC2)cc1 [MLS000063146] | 1.2 | 25.4 µM | 4 | –
CCN1CCN(CCCNC(=O)c2cc3cc4ccc(OC)cc4nc3o2)CC1 [MLS000091920] | 1.2 | 5.4 µM | 4 | –
O=C1C2CCCN2C(c2cccs2)N1c1ccc(Cl)cc1 (stereo not drawn) [MLS000092187] | 1.2 | 25.2 µM | 1.4 | –
Cc1cc(OCCCCCNCCO)cc(C)c1Cl [MLS000106706] | 1.2 | 25.2 µM | 1.5 | 0.595 µM
CC1(C)CC(NC(=O)N2c3ccccc3Sc3ccccc32)CC(C)(C)N1 [MLS000332573] | 1.2 | 12.8 µM | 1.3 | 6.02 µM
Cc1ccc(NC(=O)CN(C)C(=O)Cn2ncc(Cl)c(Cl)c2=O)cc1 [MLS000336293] | – | 24 µM | 4 | –
O=C(COC(=O)/C=C/c1cccs1)Nc1nc(-c2ccccc2)cs1 [MLS000391391] | 1.2 | 25.3 µM | 1.4 | –
CC(C)(C)c1cc(/C=N/O)cc(C(C)(C)C)c1O [MLS000391984] | 1.2 | 6.12 µM | 1.4 | –
S=C(Nc1ccc(Cl)cc1)NC1CCN(Cc2ccccc2)CC1 [MLS000418057] | 1.2 | 25.6 µM | 4 | –
CCN(CC)CCNC1=NCCn2c1cc1cc(OC)ccc12 [MLS000556387] | 1.2 | 25.5 µM | 1.6 | 2.93 µM
Cc1cc(C(=O)c2ccccc2)c(NC(=O)CCl)s1 [MLS000567464] | 1.2 | ~44.4 µM | 1.6 | 25.2 µM
Cc1ccc(NC(=O)ON=C2CCCC2)cc1 [MLS000569139] | 1.2 | 12.7 µM | 1.4 | –
CCOc1cccc(CNCCO)c1OCc1ccc(Cl)cc1Cl.Cl [MLS000580080] | 1.2 | 25.1 µM | 1.3 | 24.6 µM
COc1ccc(C(C(=O)NC2CCCCC2)N(C(=O)CCl)c2ccc(C)cc2)cc1 (stereo not drawn) [MLS000583959] | 1.2 | 12.1 µM | 1.3 | 12.4 µM
C=CCNCCOCCOc1ccc(Cl)cc1C(C)(C)C [MLS000666802] | – | 25.2 µM | 1.5 | 0.616 µM
CCCN1CCN(CCCNC(=O)c2cc3c(=O)[nH]c4ccc(C)cc4c3s2)CC1 [MLS000673118] | 1.2 | 25.1 µM | 1.3 | 25 µM
CCOC(=O)c1c(C)n(CC(O)CN(C)C)c2cc(Br)c(OC)cc12.Cl (stereo not drawn) [MLS000684231] | 1.2 | 4.88 µM | 1.3 | 6.48 µM
CCCCN(CCCC)CCNC(=O)CSCc1ccc(C)cc1.O=C(O)C(=O)O [MLS000689481] | 1.2 | 12.8 µM | 1.3 | 12 µM
CCOc1cc(CNCCc2c[nH]c3ccccc23)cc(Cl)c1OC.Cl [MLS000718690] | 1.2 | 25.3 µM | – | 2.77 µM
Oc1ccc(N2CCN(Cc3ccc(OCCCN4CCCCC4)cc3)CC2)cc1 [MLS000736237] | 1.2 | 14 µM | 4 | –
Oc1ccc(Nc2ccnc3cc(Cl)ccc23)cc1 [MLS000737975] | – | 25.2 µM | 4 | –
Cc1cc(C)c2nc(C)cc(Nc3ccc(C(=O)NCCO)cc3)c2c1 [MLS000768081] | 1.2 | 13.8 µM | 4 | –
CCN(CC)CCCNc1nc(CN2CCOCC2)nc2sc3c(c12)CCC3 [MLS000772389] | 1.2 | 24.8 µM | 1.6 | 3.51 µM
O=C1COc2ccc(C(=O)CCl)cc2N1 [MLS000780111] | – | ~38.8 µM | 4 | –
Fc1ccc(C(c2nnnn2Cc2cccs2)N2CCN(C3CCCCC3)CC2)cc1 (stereo not drawn) [MLS000880330] | 1.2 | 25.8 µM | 1.6 | 6.38 µM

SMILES | Curve class (MARV) (MARV) | IC50 (MARV) | Curve Class (EBOV) (EBOV) | IC50 (EBOV)
COc1ccc(NC(=O)C2C3C=CC4(O3)C2C(=O)N(CCN2CCCCC2)C4C(=O)NC2CCCC(C)C2C)cc1 (stereo not drawn) [MLS000936259] | 1.2 | 25.3 µM | 1.3 | 12.5 µM
Cc1c(C(=O)NCCN(C)C)oc2ccc(S(=O)(=O)N3CCCC3)cc12 [MLS000936795] | 1.2 | 25.4 µM | 1.4 | –
Cc1cc(NC(=O)CCN2CCN(C/C=C/c3ccccc3)CC2)ccc1Br.Cl [MLS000999960] | – | 26.4 µM | 1.6 | 3.28 µM
CCN1CCCC1CNCC(O)COc1ccc(C(C)(C)C)cc1C.O=C(O)C(=O)O (stereo not drawn) [MLS001018888] | 1.2 | 25.7 µM | 1.3 | 12.2 µM
Cc1cc(Nc2ccc(Cl)cc2)nc(N2CCOCC2)n1 [MLS001029946] | 1.2 | ~43.2 µM | 1.6 | 1.52 µM
COc1ccc2c(c1)c(CCN)c(C)n2Cc1ccccc1.Cl [MLS001030162] | – | 25.3 µM | 1.3 | 6.41 µM
COc1ccccc1C(=O)O/N=C(\N)c1ccccn1 [MLS001045935] | 1.2 | 27.9 µM | 1.4 | –
CN(C)c1cc(NC(=O)CN2CCCC2)c2ccccc2n1.O=C(O)C(=O)O [MLS001047402] | 1.2 | 25.9 µM | 1.2 | 5.26 µM
COc1ccc(C(CNC(=O)c2oc3ccc(OC)cc3c2C)N2CCCC2)cc1 (stereo not drawn) [MLS001150589] | 1.2 | 25.9 µM | 4 | –
COc1ccccc1CCN1CCCC(CN(C)CC(C)(C)CO)C1 (stereo not drawn) [MLS001162808] | 1.2 | 26.1 µM | 1.3 | 7.25 µM
O=C(CCCN1CCc2[nH]c3ccc(F)cc3c2C1)c1ccc(F)cc1 [MLS001173370] | – | 25.1 µM | 1.3 | 3.06 µM
O=C(C#Cc1ccccc1)c1ccco1 [MLS001174896] | – | 12.2 µM | – | 12.4 µM
CCN(CC)CCNC(=O)c1ccc(NC(=O)c2ccccc2-c2ccc(C(F)(F)F)cc2)cc1 [MLS001175455] | 1.2 | 25.4 µM | 1.6 | 6.42 µM
Cc1cccc(C)c1OCC(O)CNC(C)c1ccccc1.Cl (stereo not drawn) [MLS001177927] | 1.2 | 25.8 µM | 1.5 | 6.42 µM
Fc1ccc2c(c1)Sc1ccc(Cl)cc1CC2N1CCN(CCC2OCCO2)CC1 (stereo not drawn) [MLS001179272] | 1.3 | 25.4 µM | 1.5 | 0.691 µM
COc1ccc2c(c1)CC(N1CCN(C)CC1)c1cc(OC)ccc1S2.O=C(O)/C=C\C(=O)O (stereo not drawn) [MLS001179278] | 1.2 | 12.5 µM | 1.6 | 6.49 µM
CCN(CCNCC(O)COc1ccccc1C(C)C)c1cccc(C)c1.O=C(O)C(=O)O (stereo not drawn) [MLS001179997] | – | 25.5 µM | 1.4 | –
Cc1ccc(C(=O)N/C(=C/c2ccc(-c3ccc([N+](=O)[O-])cc3)o2)C(=O)NCCCN(C)C)cc1 [MLS001180408] | – | 12.5 µM | 4 | –
OC(CN1CCCCC1)Cn1c2ccc(Cl)cc2c2cc(Cl)ccc21 (stereo not drawn) [MLS001181479] | 1.2 | 25.6 µM | 4 | –
Cc1cc(Cl)cc(C)c1OCCn1ccnc1 [MLS001196083] | – | 2.06 µM | – | 6.19 µM
CN(C)CCCNC(=S)N1CCN(c2nc(-c3ccccc3)cs2)CC1 [MLS001207131] | 1.2 | 25.3 µM | 1.3 | 25.2 µM
COc1ccc(Nc2cc(C)nc3ccc(OC)cc23)cc1 [MLS001209453] | 1.2 | 12.5 µM | 1.3 | 3.4 µM
Cc1ccccc1NC(=O)CSc1ccc(-c2ccccn2)nn1 [MLS001237534] | – | 24.8 µM | 4 | –
CN(C)CCCN(C(=O)c1ccc2ccccc2c1)c1nc2cc3c(cc2s1)OCO3.Cl [MLS001239325] | 1.3 | 13.3 µM | 1.7 | 1.55 µM
CCOC(=O)N1CCN(S(=O)(=O)c2ccc(C(=O)N(CCCN(C)C)c3nc4c(C)c(C)ccc4s3)cc2)CC1.Cl [MLS001239358] | – | 13 µM | 1.6 | 0.609 µM
C=C1C(=O)c2sccc2C(c2ccc(OC)c(OC)c2)C1COC(C)=O (stereo not drawn) [MLS002702500] | 1.3 | 2.06 µM | – | 5.93 µM

From patent US10111881B2 (priority 2016, dated 2018)
